Structures can show the parent of a compound that is named as a salt.
Key:
Recombinant GST-Tie2 = target: T1, Recombinant GST-Tie2 (Homo sapiens, UniProt Q02763); assay: Tie2 Fluorescence Polarization Kinase Activity Assay (TIE2-FP); format: biochemical; details: activated Tie2, 200 μM ATP
T1 construct: GST
Procedure: Tie2 Fluorescence Polarization Kinase Activity Assay: (TIE2-FP)
Activation of Recombinant Tie2 Activation:
Recombinant GST-Tie2 was activated by incubating the enzyme in 20 mM Tris-HCl, pH 7.5, 12 mM MgCl2, 100 mM NaCl, 20 μM sodium vanidate, 1 mM DT and 300 μM ATP at room temperature for 2 hours. The activation mixture was then passed through a NAP-25 desalting column (Pharmacia Biotech cat. no. 17-0852-O2) to remove the free ATP. The activated enzyme was stored as aliquots at −80° C. in 20 mM Tris-HCl, pH 7.5 and 100 mM NaCl.
The final assay conditions were 50 mM HEPES, pH 7.5, 5% DMSO (when screening compounds), 200 μM ATP, 5 mM MgCl2, 1 mM DTT, 50 μM sodium vanidate, 1 nM activated enzyme, and 200 μM peptide. IC50's of compounds were measured under subsaturating ATP (200 μM) and varing concentrations of activated Tie2 and peptide substrate (RFWKYEFWR-OH; MW 1873 Da, TFA salt). Panvera Anti-phosphotyrosine antibody (Cat#P2840) and PTK Green Tracer (Cat#P2842) were used to detect the phosphorylated peptide. Polarization was measured on a TECAN Polarion in 138-second cycles for 30 minutes at room temperature. IC50's were then determined from the % polarization using normal calculation methods.

GST-VEGFR2 = target: T2, GST-VEGFR2 (Homo sapiens, UniProt P35968); assay: VEGF-R2 Enzyme Assay (VEGF-E), LANCE method; format: biochemical; details: GST-VEGFR2, 75 μM ATP, peptide phosphorylation
T2 construct: GST-VEGFR2, baculovirus expressed recombinant constructs of the intracellular domains of human TIE2 tagged by GST; made in house
T2 sequence (P35968 786-1356 limits assumed): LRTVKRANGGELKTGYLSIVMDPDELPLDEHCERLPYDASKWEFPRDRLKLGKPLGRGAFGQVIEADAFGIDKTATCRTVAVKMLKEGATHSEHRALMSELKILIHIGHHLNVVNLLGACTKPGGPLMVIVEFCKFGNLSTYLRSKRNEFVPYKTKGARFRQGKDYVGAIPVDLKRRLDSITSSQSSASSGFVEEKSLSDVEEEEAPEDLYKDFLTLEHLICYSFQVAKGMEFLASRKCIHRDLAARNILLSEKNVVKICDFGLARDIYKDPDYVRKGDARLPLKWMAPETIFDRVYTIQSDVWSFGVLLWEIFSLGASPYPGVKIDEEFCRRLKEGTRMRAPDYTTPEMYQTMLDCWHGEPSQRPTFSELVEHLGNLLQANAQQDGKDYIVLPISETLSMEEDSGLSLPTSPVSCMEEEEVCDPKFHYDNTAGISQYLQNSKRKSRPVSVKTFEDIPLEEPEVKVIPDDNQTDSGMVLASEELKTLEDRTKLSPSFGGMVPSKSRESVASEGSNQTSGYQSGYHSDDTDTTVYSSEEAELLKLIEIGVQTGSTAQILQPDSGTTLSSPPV
Text: VEGF-R2 Enzyme Assay VEGF-E)
The VEGF enzyme assay used the LANCE method (Wallac) and GST-VEGFR2, baculovirus expressed recombinant constructs of the intracellular domains of human TIE2 tagged by GST. The method measured the ability of the purified enzymes to catalyse the transfer of the γ-phosphate from ATP onto tyrosine residues in a biotinylated synthetic peptide, (biotin-aminohexyl-EEEEYFELVAKKKK-NH2). This peptide phosphorylation was detected using the following procedure: GST-VEGFR2 was incubated for 40-60 mins at room temperature with 75 μM ATP, 5 mM MgCl2, 0.1 mM DTT, 0.1 mg/mL BSA and the test compound (diluted from a 10 mM stock in DMSO for desired concentration) in 100 mM HEPES buffer. The reaction was stopped by the addition of EDTA (final concentration 50 mM). Streptavidin linked-APC (allophycocyanin, Molecular Probe) and Europium-labeled anti-phosphorylated tyrosile antibody (Wallac) were then added at the final concentration of 15 nM and 1 nM, respectively. The APC signal was measured using an ARVO multilabel counter (Wallac Berthold, Japan). The percent inhibition of activity was calculated relative to blank control wells. The concentration of test compound that inhibits 50% of activity (IC50) was interpolated using nonlinear regression (Levernberg-Marquardt) and the equation, γ=Vmax (1−x/(K+x))+Y2, where “K” was equal to the IC50. The IC50 values were converted to pIC50 values, i.e., −log IC50 in Molar concentration.

[1] = test system: Human umbilical cord endothelial cells (HUVEC); assay: VEGF-Driven Cellular Proliferation Assay: BrdU Incorporation Assay (VEGF-C); format: cell-based
Procedure: VEGF-Driven Cellular Proliferation Assay: BrdU Incorporation Assay (VEGF-C)
Human umbilical cord endothelial cells (HUVEC, Clonetics, CC2519) were passaged in Type I collagen-coated 100-mm petridishes in EGM-MV medium (Clonetics, CC3125) at 37 C in a humidified 5% CO2, 95% air incubator. (HUVEC passaged more than 6 times in vitro were discarded and not subjected to assaying.) The cells were harvested using trypsin/EDTA, counted using a haemocytometer and plated at 5000 cells/well in a Type I-collagen coated 96-well plate (Becton Dickinson, 354407) in M199 medium (Gibco BRL, 12340-030) containing 5% FBS (Hyclone, A 1115-L) and gentamicin (at 50 ug/ml, Gibco BRL). After incubation overnight at 37° C., the media were replaced with 100 ul of M199 serum-free medium containing compounds at various concentrations with 0.6% DMSO and gentamicin. The compounds were diluted in serum-free M199 medium from 10 mM stock solutions prepared in 100% DMSO. After a 30 min incubation at 37° C. the cells were fed with 100 ul of serum-free M199 medium containing gentamicin, 0.2% culture-grade bovine serum albumin (BSA, Sigma A1993) and 20 ng/ml of VEGF (R&D systems, 293-VE) or 0.6 ng/ml of basic FGF (R&D systems, 233-FB), and cultured at 37° C. for another 24 h. The cells were pulsed with bromodeoxyuridine (BrdU at 10 μM in serum-free M199) at 37° C. for an additional 24 h. The incorporation of BrdU into the proliferating HUVEC were analyzed using BrdU Cell Proliferation ELISA (Roche Molecular Biochemicals, 1647229) according to the manufacturer's protocols. The optical density at 450 nm was measured with a multilabel counter (ARVO SX, Wallac). The percent inhibition of cell growth was calculated relative to blank control wells. The concentration of test compound that inhibits 50% of cell growth (IC50) was interpolated using nonlinear regression (Levernberg-Marquardt) and the equation, γ=Vmax (1−x/(K+x))+Y2, where “K” was equal to the IC50. The IC50 values were converted to pIC50 values, i.e., −log IC50 in Molar concentration.

T1 sequence (Q02763 770-1124 limits assumed): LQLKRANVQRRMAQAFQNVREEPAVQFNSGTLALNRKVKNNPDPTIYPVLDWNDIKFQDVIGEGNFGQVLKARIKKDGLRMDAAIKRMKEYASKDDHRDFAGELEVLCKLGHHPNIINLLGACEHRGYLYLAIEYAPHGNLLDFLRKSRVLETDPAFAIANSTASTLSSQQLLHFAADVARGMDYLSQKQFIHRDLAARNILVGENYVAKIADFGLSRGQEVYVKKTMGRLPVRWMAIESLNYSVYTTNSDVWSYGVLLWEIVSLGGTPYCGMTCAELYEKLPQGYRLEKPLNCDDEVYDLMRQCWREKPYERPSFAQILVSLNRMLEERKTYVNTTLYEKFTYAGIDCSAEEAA

Row | SMILES | IC50 (Recombinant GST-Tie2) | IC50 (GST-VEGFR2) | IC50 [1]
1 | Cc1cccc(NC(=O)Nc2ccc(N(C)c3ccnc(Nc4cccc(S(N)(=O)=O)c4)n3)cc2)c1 [Example 4, 3-[(4-{methyl[4-({[(3-methylphenyl)amino]carbonyl}amino)phenyl]amino}pyrimidin-2-yl)amino]benzenesulfonamide] | < 100 nM | < 100 nM | < 100 nM
2 | CN(c1cccc(NC(=O)Nc2cccc(Cl)c2)c1)c1ccnc(Nc2cccc(S(N)(=O)=O)c2)n1 [Example 15, 3-({4-[[3-({[(3-Chlorophenyl)amino]carbonyl}amino)phenyl](methyl)amino]pyrimidin-2-yl}amino)benzenesulfonamide] | < 100 nM | < 100 nM | < 100 nM
3 | CN(c1ccc(NC(=O)Nc2ccc(OC(F)(F)F)cc2)cc1)c1ccnc(Nc2cccc(S(N)(=O)=O)c2)n1 [Example 1, 3-{[4-(methyl{4-[({[4-(trifluoromethoxy)phenyl]amino}carbonyl)amino]phenyl}-amino)pyrimidin-2-yl]amino}benzenesulfonamide] | < 100 nM | < 100 nM | < 100 nM
4 | CCS(=O)(=O)c1ccc(OC)c(Nc2nccc(N(C)c3ccc(NC(=O)Nc4cccc(Cl)c4)cc3)n2)c1 [Example 8, N-(3-Chlorophenyl)-N′-{4-[(2-{[5-(ethylsulfonyl)-2-methoxyphenyl]amino}pyrimidin-4-yl)(methyl)amino]phenyl}urea] | < 100 nM | < 100 nM | < 100 nM
5 | CCc1cccc(NC(=O)Nc2ccc(N(C)c3ccnc(Nc4cccc(S(N)(=O)=O)c4)n3)cc2)c1 [Example 6, 3-({4-[[4-({[(3-ethylphenyl)amino]carbonyl}amino)phenyl](methyl)amino]pyrimidin-2-yl}amino)benzenesulfonamide] | < 100 nM | < 100 nM | < 100 nM
6 | CN(c1ccc(NC(=O)Nc2cc(C(F)(F)F)ccc2F)cc1)c1ccnc(Nc2ccc(CS(C)(=O)=O)cc2)n1 [Example 13, N-[2-fluoro-5-(trifluoromethyl)phenyl]-N′-(4-{methyl[2-({4-(methylsulfonyl)methyl]phenyl}amino)pyrimidin-4-yl]amino}phenyl)urea hydrochloride] | < 100 nM | < 100 nM | < 100 nM
7 | CN(c1cccc(NC(=O)Nc2cccc(F)c2)c1)c1ccnc(Nc2cccc(S(N)(=O)=O)c2)n1 [Example 16, 3-({4-[[3-({[(3-Fluorophenyl)amino]carbonyl}amino)phenyl](methyl)amino]pyrimidin-2-yl}amino)benzenesulfonamide] | 100 to 1000 nM | < 100 nM | < 100 nM
8 | CN(c1ccc(NC(=O)NCc2ccccc2Cl)cc1)c1ccnc(Nc2cccc(S(N)(=O)=O)c2)n1 [Example 5, 3-({4-[[4-({[(2-chlorobenzyl)amino]carbonyl}amino)phenyl](methyl)amino]pyrimidin-2-yl}amino)benzenesulfonamide] | < 100 nM | < 100 nM | < 100 nM
9 | CCc1cccc(NC(=O)Nc2ccc(N(C)c3ccnc(Nc4ccc(S(N)(=O)=O)cc4)n3)cc2)c1 [Example 20, 4-({4-[[4-({[(3-ethylphenyl)amino]carbonyl}amino)phenyl](methyl)amino]pyrimidin-2-yl}amino)benzenesulfonamide] | < 100 nM | < 100 nM | < 100 nM
10 | CN(c1ccc(NC(=O)Nc2cccc(Cl)c2)cc1)c1ccnc(Nc2cccc(S(N)(=O)=O)c2)n1 [Example 9, 3-({4-[[4-({[(3-Chlorophenyl)amino]carbonyl}amino)phenyl](methyl)amino]-pyrimidin-2-yl}amino)benzenesulfonamide] | < 100 nM | < 100 nM | < 100 nM
11 | CN(c1ccc(NC(=O)Nc2cccc(F)c2)cc1)c1ccnc(Nc2cccc(S(N)(=O)=O)c2)n1 [Example 7, 3-({4-[[4-({[(3-Fluorophenyl)amino]corbonyl}amino)phenyl](methyl)amino]pyrimidin-2-yl}amino)benzenesulfonamide] | < 100 nM | < 100 nM | < 100 nM

From US7459455B2, “Pyrimidine compounds” (SmithKline Beecham Corporation, priority 2002, dated 2008)
